System: razor bumps
Assay: proof of concept use of acne gels, creams, suspension and lotions immediately after shaving to prevent razor bumps
Format: in vivo, human
Settings: concentration down to at least 0.75% within the gel

**Q.** How did the “adequacy of lower concentration for preventing razor bumps” value turn out when clindamycin phosphate was run?
**A.** sufficiently adequate

Source: US20230000892A1, “Solution, Lotion, Gel, and Cream for Use to Prevent Razor Bumps” (priority 2021, published 2023)
